Measured values: patent publication US6323205A (priority 2000, dated 2001)

What was measured:
[1] = Phase II clinical trial, tumor responses; format: in vivo, human patients; settings: 150 mg/m^2 biweekly
Source text: To date, the first six patients have received at least one cycle of treatments. […] Specifically, three patients enrolled in the study had measurable disease.

LX-1 lung tumor = test: Antitumor activity against LX-1 lung tumor in nude mice (Example 10, combinations); format: in vivo, human tumor xenograft in nude mice; settings: for Avg Tumor Diameter: 4 treatments, mg/kg: EDX 40, PDX 60, TXL 25, TXT 20, PDX+TXL 45+18, PDX+TXT 45+15, 'then' = taxane 24 h later; for Change in Tumor Volume: from starting point of 83 mg, 3 to 4 days after treatment end
human LX-1 lung cancer = test: Antitumor activity against xenografts of human LX-1 lung cancer in nude mice (Example 3); format: in vivo, human tumor xenograft in nude mice; settings: Example 2 protocol, tumor free three weeks after therapy
[2] = system: human MX-1 mammary carcinoma; test: Antitumor activity against xenografts of human MX-1 mammary carcinoma in nude mice; settings: same doses, no measurable tumor at day 14, mice/mice tested
PC-3 (human prostate) = test: Antitumor activity in PC-3 tumor model in mice (Example 11); settings: PC3, dose PDX 60, TXL 25, PDX + TXL 45 + 16
Source text: (§1) The tumor volume at the time of initial treatment was 14-19 mm^3.

LX-1 (human lung) = test: Antitumor activity in LX-1 tumor model in mice (Example 11)
Source text: as §1

TSU-PR1 (human prostate) = test: Antitumor activity in TSU-PR1 tumor model in mice (Example 11)
Source text: as §1

[3] = dose PDX 60, TXL 25, PDX + TXL 45 + 16
[4] = dose PDX 60, TXL 25, PDX + TXL 45 + 16, initial volume 14-19 mm^3

C#CCC(Cc1cnc2nc(N)nc(N)c2n1)c1ccc(C(=O)N[C@@H](CCC(=O)O)C(=O)O)cc1 (stereo partly drawn) [10-propargyl-10-deazaaminopterin]
response of fourth patient (evaluable disease) [1]: objective improvement in disease parameters | patients with major responses ([1]; of first six patients): four have demonstrated major responses | reduction in tumor diameter (lung scans) ([1]; three patients with measurable disease): at least 50%

CCC(Cc1cnc2nc(N)nc(N)c2n1)c1ccc(C(=O)N[C@@H](CCC(=O)O)C(=O)O)cc1 (stereo partly drawn) [EDX, edatrexate]
Avg Tumor Diameter (LX-1 lung tumor): 6.6 ± 2 mm | Change in Tumor Volume (LX-1 lung tumor; same doses): +102 mg | Tumor Free Mice at 3-4 days (LX-1 lung tumor; same doses, mice/mice treated): 0/10

CN(Cc1cnc2nc(N)nc(N)c2n1)c1ccc(C(=O)N[C@@H](CCC(=O)O)C(=O)O)cc1 [MTX, methotrexate, reference compound]
Cures (human LX-1 lung cancer): 0/10 | Complete Regressions [2]: no regressions

CC(=O)O[C@H]1C(=O)[C@@]2(C)[C@H]([C@H](OC(=O)c3ccccc3)[C@]3(O)C[C@H](OC(=O)[C@H](O)[C@@H](NC(=O)c4ccccc4)c4ccccc4)C(C)=C1C3(C)C)[C@]1(OC(C)=O)CO[C@@H]1C[C@@H]2O [TXL, paclitaxel, reference compound]
Avg Tumor Diameter (LX-1 lung tumor): 6.2 ± 2 mm | Change in Tumor Volume (LX-1 lung tumor; same doses): +42 mg | Tumor Free Mice at 3-4 days (LX-1 lung tumor; same doses, mice/mice treated): 0/10 | Avg Tumor Diameter (PC-3 (human prostate)): 4.3 ± 0.3 mm | Tumor Free Mice (PC-3 (human prostate)): 0/6 | Change in Tumor Volume (PC-3 (human prostate); initial volume 14-19 mm^3): +26 | Avg Tumor Diameter (LX-1 (human lung); [3]): 11.6 ± 1 mm | Tumor Free Mice (LX-1 (human lung); [3]): 0/6 | Change in Tumor Volume (LX-1 (human lung); [4]): +803 | Avg Tumor Diameter (TSU-PR1 (human prostate); [3]): 3.2 ± 0.3 mm | Tumor Free Mice (TSU-PR1 (human prostate); [3]): 0/6 | Change in Tumor Volume (TSU-PR1 (human prostate); [4]): 0

CC(=O)O[C@@]12CO[C@@H]1C[C@H](O)[C@@]1(C)C(=O)[C@H](O)C3=C(C)[C@@H](OC(=O)[C@H](O)[C@@H](NC(=O)OC(C)(C)C)c4ccccc4)C[C@@](O)([C@@H](OC(=O)c4ccccc4)[C@H]21)C3(C)C [TXT, docetaxel]
Avg Tumor Diameter (LX-1 lung tumor): 6.0 ± 2 mm | Change in Tumor Volume (LX-1 lung tumor; same doses): +34 mg | Tumor Free Mice at 3-4 days (LX-1 lung tumor; same doses, mice/mice treated): 1/10 | Tumor Free Mice at 28 days (LX-1 lung tumor; same doses, mice/mice treated): 0/10
